According to ChEMBL document CHEMBL4396891, “Recent update on anti-dengue drug discovery” (Eur J Med Chem, 2019):
One block for each compound: values may come before it.

Assays:
A549 = test: Cytotoxicity against human A549 cells assessed as cell survival at 200 uM after 24 hrs by MTT assay relative to control; format: functional; conditions: A549, 24 h, read-out: Activity
dengue virus type 4 = test: Antiviral activity against DENV4 infected in BHK cells assessed as reduction in viral replication; format: functional, organism-based
dengue virus type 2 [1] = test: Antiviral activity against DENV2 infected in BHK cells assessed as reduction in viral replication; format: functional, organism-based
Nonstructural protein 5 = Nonstructural protein 5 (Dengue virus, UniProt V5TFZ2); test: Inhibition of recombinant N-terminal His6-tagged DENV2 NGC NS5 RNA dependent RNA polymerase; set-up: species or system dengue virus type 2
dengue virus type 1 = test: Antiviral activity against DENV1 infected in BHK cells assessed as reduction in viral replication; format: functional, organism-based
dengue virus type 3 = test: Antiviral activity against DENV3 infected in BHK cells assessed as reduction in viral replication; format: functional, organism-based
dengue virus type 2 [2] = test: Antiviral activity against DENV2 infected in human Huh7 cells up to 72 hrs by immunofluorescence analysis; format: functional, organism-based; conditions: Huh-7, 72 h
dengue virus type 2 [3] = test: Antiviral activity against DENV2 infected in African green monkey Vero cells assessed as reduction in virus titer after 72 hrs by naphthol blue-black dye based assay; format: functional, organism-based
dengue virus type 2 [4] = test: Antiviral activity against DENV2 infected in BHK-21 assessed as reduction in viral plaque formation by crystal violet staining based assay; format: functional, organism-based
dengue virus type 2 [5] = test: Antiviral activity against DENV2 infected in BHK-21 incubated for 2 hrs followed by compound washout and subsequent replating by plaque-forming assay; format: functional, organism-based; conditions: BHK-21, 2 h
dengue virus type 2 [6] = test: Antiviral activity against DENV2 infected in human Huh7 cells assessed as reduction in virus yield by qRT-PCR analysis; format: functional, organism-based; conditions: Huh-7
dengue virus type 2 [7] = test: Antiviral activity against DENV2 New Guinea C/PUO-218 by qRT-PCR analysis; format: functional, organism-based

Nonstructural protein 5, sequence (V5TFZ2 whole entry): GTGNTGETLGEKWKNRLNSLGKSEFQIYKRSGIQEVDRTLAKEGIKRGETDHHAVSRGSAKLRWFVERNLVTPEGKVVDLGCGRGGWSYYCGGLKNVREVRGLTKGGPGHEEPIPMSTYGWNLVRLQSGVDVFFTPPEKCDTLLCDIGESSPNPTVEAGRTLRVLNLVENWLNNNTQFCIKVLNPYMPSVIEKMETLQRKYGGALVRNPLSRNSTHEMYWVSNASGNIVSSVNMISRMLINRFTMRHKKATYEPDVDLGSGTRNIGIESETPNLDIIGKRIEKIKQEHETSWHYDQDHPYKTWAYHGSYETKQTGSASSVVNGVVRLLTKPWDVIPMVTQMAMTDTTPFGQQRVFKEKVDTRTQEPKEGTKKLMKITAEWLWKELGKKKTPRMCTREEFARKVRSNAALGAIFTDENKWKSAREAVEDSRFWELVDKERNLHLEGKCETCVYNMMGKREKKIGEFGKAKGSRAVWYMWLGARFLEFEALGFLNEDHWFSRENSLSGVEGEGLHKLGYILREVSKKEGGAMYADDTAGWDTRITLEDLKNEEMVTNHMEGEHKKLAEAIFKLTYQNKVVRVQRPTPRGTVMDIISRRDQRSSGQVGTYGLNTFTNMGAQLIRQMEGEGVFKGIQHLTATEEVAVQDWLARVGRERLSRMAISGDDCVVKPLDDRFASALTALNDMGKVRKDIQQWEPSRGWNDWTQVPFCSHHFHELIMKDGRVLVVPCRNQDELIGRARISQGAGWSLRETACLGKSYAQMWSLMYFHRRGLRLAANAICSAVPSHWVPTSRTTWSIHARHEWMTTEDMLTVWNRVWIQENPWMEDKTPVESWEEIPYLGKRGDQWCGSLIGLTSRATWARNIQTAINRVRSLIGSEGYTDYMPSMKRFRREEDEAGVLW

SMILES: CC1(C)[C@@H](OC(=O)CCC(=O)O)CC[C@]2(C)[C@H]3C(=O)C=C4[C@@H]5C[C@@](C)(C(=O)O)CC[C@]5(C)CC[C@@]4(C)[C@]3(C)CC[C@@H]12 [CARBENOXOLONE]
viability at 200 µM (A549): 80%

IC50 (dengue virus type 4): 2200 to 2800 nM
EC50 (dengue virus type 2 [1]): 2200 to 2800 nM
IC50 (Nonstructural protein 5): 5000 to 6700 nM
EC50 (dengue virus type 1): 2200 to 2800 nM
EC50 (dengue virus type 3): 2200 to 2800 nM
SMILES: O=C(NO)c1ncc(CS(=O)(=O)c2ccccc2)c(CO)c1O

SMILES: CC(=O)O[C@H]1C[C@H](O[C@H]2[C@@H](O)C[C@H](O[C@H]3[C@@H](O)C[C@H](O[C@H]4CC[C@@]5(C)[C@H](CC[C@@H]6[C@@H]5C[C@@H](O)[C@]5(C)[C@@H](C7=CC(=O)OC7)CC[C@]65O)C4)O[C@@H]3C)O[C@@H]2C)O[C@H](C)[C@H]1O[C@@H]1O[C@H](CO)[C@@H](O)[C@H](O)[C@H]1O [LANATOSIDE C]
IC50 (dengue virus type 2 [2]): 190 nM

SMILES: C[C@H]1c2cccc(O)c2C(=O)C2=C(O)[C@]3(O)C(=O)C(C(N)=O)=C(O)[C@@H](N(C)C)[C@@H]3[C@@H](O)[C@@H]21 [DOXYCYCLINE]
IC50 (dengue virus type 2 [3]): 50000 nM

IC50 (dengue virus type 2 [4]): 10000 nM
SMILES: O=C(Nc1ccc([N+](=O)[O-])cc1Cl)c1cc(Cl)ccc1O [NICLOSAMIDE]

IC50 (dengue virus type 2 [5]): 10100 nM
SMILES: CCN(CCO)CCCC(C)Nc1ccnc2cc(Cl)ccc12 (configuration not stated) [HYDROXYCHLOROQUINE]

SMILES: CC(C)OC(=O)[C@H](C)N[P@](=O)(OC[C@H]1O[C@@H](n2ccc(=O)[nH]c2=O)[C@](C)(F)[C@@H]1O)Oc1ccccc1 [SOFOSBUVIR]
EC50 (dengue virus type 2 [6]): 4900 nM
EC50 (dengue virus type 2 [7]): 400 nM
